Assay results as given in US12383628B2 (priority 2016, dated 2025).
Where “and” joins values, the source holds several entries; their conditions need not be identical. Identical values can stand only once. Entries after “also recorded” stand apart in the source; their conditions may differ. Like-named read-outs stand apart in the source and are kept apart here. Square brackets hold non-standard residues; d marks the D form. Ends that are not written are not given here. Peptide text beside a SMILES is read from it. Dmt = Cc1cc(O)cc(C)c1C[C@H](N)C(=O)O

Legend:
[1] = after 4 days of incubation
Procedure: (§1) Human plasma was obtained from the Belgian Red Cross (Vlaams-Brabant, Leuven). […] Frozen (−20° C.) human plasma samples were thawed and thermostated to 37+2° C. Dissolution of the lyophilized peptide and consecutive dilutions were performed in water. […] On every time point 100 μL spiked plasma was transferred to a 500 μL Eppendorf tube and a protein crash was performed using 300 μL methanol+0.1% TFA (4° C.). Suspensions were vortexed for 15 seconds and placed at 4° C. for 30 to 45 minutes. After centrifugation at 14000 rpm for 20 minutes, 100 μL supernatant was diluted with 100 μL water in the injection vial. Injection samples were vortexed for 5 seconds and placed in the autosampler. […] Concentrations were calculated by use of the calibration curve and transferred to a semi-log chart presenting the log concentrations as a function of time. The optimum curve was used to calculate the peptide-half life. Calculations were performed using Microsoft® Office Professional 2010 Excel.

[2] = TEM / cryo-TEM fibre morphology of hydrogels; assay type: physicochemical; conditions: for Fibre thickness: TEM, Example 2
Procedure: Formvar carbon-coated 400-mesh copper grids (Agar Scientific, Stansted, United Kingdom) were treated with plasma using an ELMO Glow discharge system to clean the grid surface and to render the carbon surface hydrophilic. Hydrogel samples were prepared 12 h in advance as described above. Small aliquots of sample (5 μL) were pipetted onto the carbon grids for adsorption. After 30 s, excess of sample was removed by using a Whatman 541 filter paper. The loaded grids were stained during 10 s with 1% uranyl formate after which the grids were air-dried. Samples were analysed using a JEOL JEM-1400 transmission electron microscope, operating at accelerating voltage of 120 kV. Images were recorded on a CMOS TemCam-F416 camera and accessory software of TVIPS.
200-mesh copper grids coated with perforated carbon film (Lacey carbon film: ProSci-Tech Old, Australia) were used and were glow discharged in nitrogen for 5 s immediately prior to use. Hydrogel samples were prepared 12 h in advance as described above. Small aliquots of sample (4 μL) were pipetted onto the carbon grids for adsorption. After 30 s, excess of sample was removed by using a Whatman 541 filter paper. The grid was then plunged into liquid ethane cooled by liquid nitrogen. Frozen grids were stored in liquid nitrogen until required. Samples were analysed using a Gatan 626 cryoholder and Tecnai 12 Transmission electron microscope, operating at accelerating voltage of 120 kV. Images were recorded using an FEI Eagle 4k×4k CCD camera.

[3] = test system: L929 (mouse fibroblast) cells; assay: Live/Dead cell viability assay on hydrogels (Example 5); assay type: cell-based; conditions: 24 h on hydrogel
Procedure: L929 (mouse fibroblast) cells were obtained from ATCC® and maintained in Gibco®, MEM with GlutaMAX supplemented with 10% FBS (SAFC, Sigma), 1% Anti-Anti (100×, Gibco®) and 1% NEAA (100×, Gibco®). Cells were maintained on tissue culture treated polystyrene (TCPS) plates at 37° C. in a humified atmosphere containing 5% CO2 and 95% air. Cells were trypsinized, harvested and counted using a hemocytometer. The resulting cell suspension was diluted in Gibco® solution before addition to the hydrogels. For ease of handling and to produce homogeneous clear hydrogels, 100 μL of peptide hydrogels were prepared (in corresponding gelation conditions, see above) in Eppendorf tubes (0.5 ml) and transported using a 21G syringe to 96-well plates after simultaneously heating (60° C.) and mixing (900 rpm) using an Eppendorf ThermoMixer®. The hydrogels were left to set overnight in the wells at room temperature and were subsequently washed twice with 200 μL of Anti-Anti (100×, Gibco®) solution, 2 h each. After washing, media was removed and cells were seeded evenly over hydrogels. Cells were plated in duplicate on all hydrogels and control wells. Viability of cells on hydrogels was determined using the traditional Live/dead cell viability assay (Invitrogen) after culture durations of 24 h.
Plates were incubated in 5% CO2 at 37° C. for 1 day to allow cell attachment and spreading to occur. […]

[4] = Dynamic rheometry of hydrogels (storage modulus G′); assay type: physicochemical; conditions: 2% w/v in PBS, 37° C., value at 1 Hz
Procedure: Dynamic rheometry measurements were performed on an AR-G2 rheometer (TA Instruments) equipped with electrically heated plates and a 10 mm-diameter aluminium parallel plate-plate geometry. Viscoelastic properties were measured by oscillatory frequency sweeps at 37° C. in the range between 0.01 and 10 Hz, using a controlled strain of 0.05%. Hydrogel samples were made 12 h in advance. A ring-shaped reservoir filled with a saturated NH4Cl solution was used as a solvent trap.

[5] = Peptide gelation (tilted tube / inverted vial test, minimum gelation concentration); assay type: physicochemical; conditions: for Minimum gelation concentration (w/v % in PBS): '/' = no gel
Procedure: The peptide gelation occurred by dissolving the TFA salt of the hexapeptide (2 mg) in 100 μL of PBS solution (pH 7.4) or physiological saline solution (0.9% NaCl).
Both peptides 2 and 4 (Table 1) gave a transparent gel in the same conditions (PBS 10 mM at pH 7.4 with a minimum gelation concentration of 24 mM; 2% w/v). To evaluate the mechanical properties of these hydrogels in a more quantitative manner, rheological experiments were performed. The viscoelastic properties of the peptide hydrogels were measured by dynamic rheometry at 37° C. This technique allowed to measure the storage modulus G′ (corresponding to the material's stiffness or rigidity), loss modulus G″ (corresponding to the viscous properties of the material) and loss factor tan (o) (ratio of G″ over G′). According to the Winter-Chambon criterion, a material reaches gelation in rheological terms if the phase angle o gets frequency-independent (F. Chambon et al., 1987 and H. Winter et al., 1987).
The peptide gelation occurred by dissolving the TFA salt of the peptide in 100 μL of PBS solution or physiological saline solution (0.9% NaCl) (pH 7.4).
The peptide gelation occurs by dissolving the TFA salt of the hydrogelator (1 or 2 mg) in 100 μL of aqueous media, PBS solution (pH 7.4) or physiological saline solution (0.9% NaCl). After successive vortexing and sonication, the gel is left to rest overnight at room temperature.
The hydrogelation was realized under physiologically relevant conditions, namely via the addition of phosphate-buffered saline (PBS) or sterile physiological saline solution (0.9% NaCl). The needed amount of hydrogelator was weighed in an Eppendorf® and solubilized by the addition of the above solutions. After vortex and sonication steps, the resulting solution was left at room temperature until gelation occurred. The gelation was qualitatively verified by the inverted vial test (if no gravitational flow was visible the gelation was considered successful). It can be noticed that all peptide hydrogelators depicted formed gels in PBS and saline solution at a concentration of 1 to 2% w/v.

[6] = In vivo monitoring of cargo release with fluorescence imaging; design: species or system athymic nude mice
Procedure: Fluorescent cargo—IRDye800CW N-hydroxysuccinimide (NHS) ester (Li-COR Biosciences) was solubilized at 4 mg/l in PBS. The solution was stirred for 2 h in order to hydrolyze the NHS ester, resulting in compound 2 as fluorescent cargo (MW=1068 g/mol). The dye solution was either used as such, or incorporated within the hydrogel as described below.
Animal study protocols were approved by the Ethical Committee for Animal Experiments of the Vrije Universiteit Brussel (also for section 2.5.). After subcutaneous injection of 150 μl of hydrogel containing 0.5 nmol of IRDye 800CW in athymic nude mice (Charles River, n=3 per group), fluorescence reflectance images of the posterior side of the mice were acquired over 24 h using the Fluobeam800 (Fluoptics) under 2.5% isoflurane anesthesia (Iso-Vet, Eurovet NV/SA). Fluorescence images were overlaid with white light images for anatomical localization. Regions of interest (ROI) were drawn around the site of injection and total fluorescence signal was measured within these ROIs using ImageJ software.

in vitro [7] = conditions: human, plasma, 37° C., in solution
Procedure: as §1

pH of the hydrogel = assay type: physicochemical
[8] = In vivo monitoring of cargo release with SPECT/CT; design: species or system C57Bl/6J mice
Procedure: The ^111In-labeled molecules were diluted up to 1 ml with PBS and either used as such, or incorporated within the hydrogel as described below.
Images were reconstructed using a filtered back-projection algorithm.
Images were quantified using the software AMIDE (sourceforge.net).

in vitro [9] = conditions: human, plasma
Procedure: Human plasma was obtained from the Belgian Red Cross (Vlaams-Brabant, Leuven). Prior to the stability test, selectivity, stability of the compound in the injection solvent, linearity, accuracy and precision of the method were investigated. Frozen (−20° C.) human plasma samples were thawed and thermostated to 37±2° C. Dissolution of the lyophilized peptide and consecutive dilutions were performed in water. The resulting aqueous solutions of each peptide individually was spiked in human plasma (10:90 v/v) with final plasma concentrations of 9 μM.
On every time point 100 μL spiked plasma was transferred to a 500 μL Eppendorf tube and a protein crash was performed using the corresponding precipitation solvent (4° C.). Suspensions were vortexed for 15 s and placed at 4° C. for 30 to 45 min. After centrifugation at 18 625 g for 20 min, 100 μL supernatant was diluted with 100 μL water in the injection vial.
Injection samples were vortexed for 5 sand placed in the autosampler. […] Concentrations were calculated by use of the calibration curve and transferred to a semi-log chart presenting the log concentrations as a function of time. The optimum curve was used to calculate the peptide half-life. Calculations were performed using Microsoft® Office Professional 2010 Excel.

[10] = for Hydrogel volume remaining: 2 w/v% in PBS, 150 μL s.c.
Procedure: ^111/n-labeling of DOTA-peptide—^111InCb (5 μl,±4 MBq) (Mallinckrodt) was added to 200 μl 1 mg/ml DOTA-peptide 6, dissolved in 0.2 M ammonium acetate buffer (NH4OAc) pH 5, and incubated for 30 min at 50° C. Radiochemical purity (>95%) was verified by ITIC using 0.1 M citrate buffer pH 5 as mobile phase. 200 μl of ^111In-peptide 6 was diluted up to 1 ml with phosphate buffered saline (PBS, 10 mM) and incorporated within the hydrogel as described below.
After sequential vortexing and sonication, hydrogels (2 w/v¾) were formed and let to rest overnight.
C57Bl/6J mice were purchased by Charles River (n=3 per group) and all experimental procedures were performed under 2.5% isoflurane anesthesia (Iso-vet). 150 μL (0.518±0.037 MBq) of the ^111In-labeled hydrogel (stability experiment) or 150 μL (1.702±0.777 MBq) of hydrogels loaded with ^111In-labeled cargos (cargo release experiment) were injected subcutaneously on the hind limb. For comparison, 150 μL of ^111In-labeled cargos not loaded into a hydrogel were also subcutaneously injected. Immediately after injection, at 1 h30, 3 h, 6 h, 12 h, 24 h, 48 h and 72 h, animals were subjected to a SPECT/CT scan. SPECT images were acquired on an e.cam^180 system (Siemens) equipped with two triple-pinhole collimators designed for ^111In (1.5 mm pinhole opening, 250 mm focal length, 47 mm radius of rotation). Images were acquired over 360° in 64 projections of 30 s into a 128×128 matrix and reconstructed using an iterative algorithm correcting for radioactive decay and allowing automatic fusion with CT images (based on six 57Co fiducial markers). […]
Maximum intensity projections (MIPs) were generated in Osirix Medical Software. Images were quantified using the software AMIDE (sourceforge.net). For the stability experiments, the size of the gel was determined by automatic delineation, for the cargo release experiments, the total radioactivity within a ROI drawn on the hind limb was calculated. Results were expressed as percentage of injected dose remaining in function of time. […]

L929 mouse fibroblasts = assay: Cytotoxicity, Live/Dead viability staining on hydrogels (Example 9); assay type: cell-based
Procedure: Hydrogels were prepared at 1, 2 or 3 mg/100 μL as duplicate in a 96-well ULA plate (Cat #CORN3474; Corning-Costar, 60 μL each well). The gels were photographed and pre-equilibrated before seeding with cells. For equilibration, gels were incubated at room temperature in 40 μL of L929 culture medium with double-strength Anti-Anti (Cat #15240062, GIBCO) for 2 h prior to seeding with cells. The equilibration medium was removed before cell seeding and retained to examine if the gels dissolved (even partially) or disintegrated into the culture medium. Next, […] mouse fibroblasts (ATCC) were seeded onto hydrogels at a concentration of 200,000 cells/ml in a volume of 50 μl. The cells were photographed immediately after seeding, observed by microscopy 2 h post-seeding and then observed and photographed at 24 h post-seeding. The cell culture medium consisted of MEM+GlutaMAX I (Cat #41090-036; GIBCO); 10% foetal bovine serum (Cat #12003C; SAFC, Sigma), 2× Anti-Anti (Cat #[…]) and 1× Non-Essential Amino Acids (Cat #41090-036; GIBCO).
Bright field microscopy was performed through use of a IX71 inverted microscope with NIS-Elements F3.0 imaging software (Olympus). The TE2000 Eclipse fluorescent microscope with NIS-Elements AR3.2 software (Nikon) was used for fluorescence imaging microscopy. Automated cell counting was performed on the NC-200 NucleoCounter using proprietary lysis and stabilising reagents and cassettes (ChemoMetec).
The viability and distribution of cells was assessed using a LIVE/DEAD Viability/Cytotoxicity Kit *for Mammalian cells* (Live-Dead Kit), (Cat #13224; Molecular Probes). Briefly, a working solution of live/dead solution was made as per manufacturer's instructions by adding 1.25 μl of Calcein AM (solution A) to 2.5 ml of pre-warmed PBS. The solution was thoroughly mixed by vortex and 2.5 μl of Ethidium homodimer (solution B), was added before vortexing a second time to mix. Excess medium was removed and the gels rinsed with 20 μl of warm PBS before a 40 μl of Live/Dead kit working solution was added to each well. The plate was incubated in a 37° C. cell culture incubator for 20 min before viewing using a fluorescent microscope. Green fluorescence was emitted from the cytoplasm of viable cells (excitation/emission ˜495 nm/˜515 nm) while dead cell nuclei fluoresced red (excitation/emission ˜495/˜635 nm) allowing a distinction to be made between viable and dead cells.

[11] = Stability and degradability of biogels in human plasma (Example 8); assay type: in vitro ADME; conditions: human plasma, 37° C.
Procedure: After centrifugation at 14 000 rpm for 15 minutes, 100 μL supernatant was diluted with 100 μL milliQ water in the injection vial. Injection samples were vortexed for 5 seconds and were analyzed by HPLC. […] Calculations were performed using Microsoft® Office Professional 2010 Excel.

KOR = KOR (Homo sapiens, UniProt P41145); assay: Binding tests (Ki) KOR
MOR = MOR (Homo sapiens, UniProt P35372); assay: Binding tests (Ki) MOR
DOR = DOR (Homo sapiens, UniProt P41143); assay: Binding tests (Ki) DOR
[12] = PBS 10 mM, pH 7.4 (text, Examples 1-2)

Chain of DOR (P41143 whole entry): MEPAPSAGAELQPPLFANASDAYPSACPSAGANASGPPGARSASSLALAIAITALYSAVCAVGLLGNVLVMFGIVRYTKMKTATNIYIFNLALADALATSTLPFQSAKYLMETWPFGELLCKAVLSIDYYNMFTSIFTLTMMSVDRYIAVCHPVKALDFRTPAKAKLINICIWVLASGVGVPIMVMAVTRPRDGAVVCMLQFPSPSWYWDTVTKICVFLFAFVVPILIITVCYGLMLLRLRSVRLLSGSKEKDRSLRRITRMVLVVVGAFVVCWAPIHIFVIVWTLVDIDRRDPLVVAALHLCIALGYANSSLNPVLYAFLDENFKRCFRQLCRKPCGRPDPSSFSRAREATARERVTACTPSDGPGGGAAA
Chain of MOR (P35372 whole entry): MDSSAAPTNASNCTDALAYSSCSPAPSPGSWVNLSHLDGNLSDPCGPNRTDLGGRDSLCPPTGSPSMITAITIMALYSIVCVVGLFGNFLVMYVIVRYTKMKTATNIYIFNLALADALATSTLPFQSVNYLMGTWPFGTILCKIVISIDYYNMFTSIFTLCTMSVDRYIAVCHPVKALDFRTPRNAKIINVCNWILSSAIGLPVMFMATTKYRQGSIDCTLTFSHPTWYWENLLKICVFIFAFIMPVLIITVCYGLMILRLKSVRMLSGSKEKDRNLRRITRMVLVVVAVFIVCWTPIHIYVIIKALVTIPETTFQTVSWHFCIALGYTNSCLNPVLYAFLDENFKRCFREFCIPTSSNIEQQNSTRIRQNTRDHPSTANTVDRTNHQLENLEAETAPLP
Chain of KOR (P41145 whole entry): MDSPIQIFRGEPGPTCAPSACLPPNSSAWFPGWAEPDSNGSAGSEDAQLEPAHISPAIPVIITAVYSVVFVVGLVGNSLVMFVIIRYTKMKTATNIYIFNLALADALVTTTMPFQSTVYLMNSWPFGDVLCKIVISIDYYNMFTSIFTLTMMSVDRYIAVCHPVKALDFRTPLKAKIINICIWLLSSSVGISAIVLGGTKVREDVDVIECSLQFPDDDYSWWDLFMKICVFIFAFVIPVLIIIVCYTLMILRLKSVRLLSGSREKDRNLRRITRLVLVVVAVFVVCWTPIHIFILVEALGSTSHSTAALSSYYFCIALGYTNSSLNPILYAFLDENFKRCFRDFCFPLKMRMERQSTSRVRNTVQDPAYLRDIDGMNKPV

NCCCC[C@@H](NC(=O)[C@@H](Cc1ccccc1)NC(=O)[C@@H](CCC(N)=O)NC(=O)[C@@H](Cc1ccccc1)NC(=O)[C@@H](CCC(=O)O)NC(=O)[C@H](N)Cc1ccccc1)C(N)=O [peptide 4, H-DPhe-DGlu-DPhe*-DGln-DPhe-DLys-NH2] (H-[dF][dE][dF][dQ][dF][dK]-NH2)
Stability after incubation with human plasma [1]: remained intact | Fibre thickness [2]: ca. 10 nm | Cytotoxicity (Live/Dead cell viability, qualitative) [3]: evenly distributed number of red (dead cells) and green (live cells) fluorescent cells | Storage modulus G′ [4]: ca. 1000 Pa | Minimum gelation concentration ([5]; PBS 10 mM, pH 7.4): 24 mM | Minimum gelation concentration [5, 12]: 2 % w/v | Minimum gelation concentration (w/v % in PBS) [5]: 3 w/v %

IRDye 800CW carboxylate
Time the fluorescent signal remains visible ([6]; dye co-formulated within hydrogel of peptide 2 (2 w/v%), s.c.): more than 24 h | Fluorescent signal at the injection site ([6]; dye injected s.c. as solution): reduces drastically within approximately two hours

FEFQFK [peptide 1, H-Phe-Glu-Phe*-Gln-Phe-Lys-OH]
half-life at 72 μM (in vitro [7]): ~2 min | pH of the gel (pH of the hydrogel; listed as MBG-1): < 4 and 3.49 | Minimum gelation concentration ([5]; in mQ:PBS 50:50): 1 (in mQ:PBS w/v %

DOTA-4-amino-2-cyclohexylmethyl-indolo[3,4-c]azepin-2-on [small molecule 3]
Clearance from the injection site ([8]; 111In-labeled cargo s.c. in solution, 1 mg/ml): totally cleared within three hours | Release profile ([8]; co-formulated within hydrogel of peptide 2, s.c.): released in a rather fast manner

FEFQFK-NH2 [peptide 2, H-Phe-Glu-Phe*-Gln-Phe-Lys-NH2]
half-life at 9 μM (in vitro [9]): ~15 min | Fibre thickness [2]: ca. 10 nm | Fibre diameter ([2]; cryoTEM and negative staining, Example 9): ~5 nm | half-life at 72 μM (in vitro [7]): ~15 min | Cytotoxicity (Live/Dead cell viability, qualitative) [3]: the majority of cells were green fluorescent and thus, were viable; also recorded: noncytotoxic | pH of the gel (pH of the hydrogel): 4.02 | Hydrogel volume remaining ([10]; 12 h): 24% | Hydrogel volume remaining ([10]; 72 h post-injection): 9% | Time within which most degradation occurred ([10]; after subcutaneous injection of the hydrogel): ≤ 12 h | Storage modulus G′ [4]: ca. 8000 Pa | Cytotoxicity in vitro (L929 mouse fibroblasts): showed no cytotoxicity in vitro | Re-gelation after injection ([5]; 25G needle used for s.c. injections): immediate re-gelation after injection through a 25G needle | Minimum gelation concentration ([5]; PBS 10 mM, pH 7.4): 24 mM | Minimum gelation concentration [5, 12]: 2 % w/v | Minimum gelation concentration (w/v % in PBS) [5]: 2 w/v %

Cc1cc(O)cc(C)c1C[C@H](N)C(=O)N[C@H](CCCCN)C(=O)N[C@@H](Cc1ccccc1)C(=O)N[C@@H](Cc1ccccc1)C(=O)N[C@@H](CCC(=O)O)C(=O)N[C@@H](Cc1ccccc1)C(=O)N[C@@H](CCC(N)=O)C(=O)N[C@@H](Cc1ccccc1)C(=O)N[C@@H](CCCCN)C(N)=O [CM-53, Dmt-DLys-Phe-Phe-Glu-Phe*-Gln-Phe-Lys-NH2] (H-[Dmt][dK]FFEFQFK-NH2; N-terminus assumed)
Time at which degradation of the heptapeptide into the N-terminal pentapeptide started [11]: 7.5 min | Time at which degradation of the pentapeptide into tripeptide was observed [11]: 60 min | Time of appearance of the heptapeptide (loss of Phe-Lys-NH2) [11]: 2.5 min | half-life at 14 μM ([11]; human, in solution, 14 μM): ~18 min | Ki (KOR): 337 nM | Ki (MOR): 7.4 nM | Ki (DOR): 24 nM
